# Source: US9775835B2 (priority 2012, dated 2017)
# Where two headings read alike, the source gives them in different places.
# Legend:
# [1] = system: HIV (strain NL4-3); assay: HIV cell based assay (Level 1 / Level 2 Screen; CFAR assay): 293T transfection, TZM-bl infection, luciferase; set-up: species or system HIV-1; details: for Anti-HIV bioactivity of hits and analogs: second round with analogs, FIGS. 12 A, B, C
# Description: Five hundred of the 1000 small molecule hits, having the highest binding affinity with the ASL's hypermodifications, were selected for screening at high concentration against HIV infected mammalian cells (FIG. 10). Briefly, toxicity was first assessed in 293T cells in 96-well plates (10^4 cells/well) by adding 50, 5 and 0.5 μM of small molecules in triplicate at each concentration. After two days, cells were assessed for poor growth versus control cells. Once the concentration of the small molecules at which the cells looked normal was established, these molecules were screened for anti-HIV activity through a transfection/infection protocol. An infectious molecular clone of HIV (strain NL4-3) was transfected into 293T cells using FuGene6 (Roche). After four hours, the cells were split into 96-well plates (10^4 cells/well) and the small molecules were added at the appropriate concentration in triplicate. After 48 hours of incubation of cells in the presence of the small molecules, virus-containing medium (50 μL) was removed from each well and transferred into a fresh 96-well plate containing TZM-bl cells for infection (10^4 cells/well). After 48 hours, the cells were assayed for luciferase expression. Controls were untransfected 293T cells and transfected cells without the small molecules added. Results from various small molecules with the best inhibition of HIV are shown in (FIG. 10). Active small molecules 2493, 9324, 8317, 2725, 3643, 2491, 12327, 14094, 12204, 12744, 12745, 12542, 18198, 18200, 8391, 6188, 16286 and 2712 have 80-95% inhibitory effect on the HIV propagation. These small molecules with bioactivity against HIV propagation are an example of some the hits further tested in a concentration-dependent screening.
# Bioactive molecules selected in Level 1 Screen were tested using the cell based assay in a concentration (dose)-dependent manner for their ability to inhibit HIV propagation (FIG. 11). The HIV cell based assay experimental protocol described in Level 1 screen was used to conduct the Level 2 Screen. […] In addition to the concentration-dependent, cell based assay, the inhibitory activities of the active molecules identified in Screen Level 1 were also assessed using the MBS assay. This assay has been developed and standardized to mimic the unique properties characteristic of the HIV viral protein recruitment and preparation of the human host tRNA3^Lys as primer of reverse transcription. Thus, the cell-based assay and the “MBS” assay were used to confirm the mechanism of action of the hits against the functional interaction of htRNA3^Lys with HIV proteins. The MBS is a “mix and measure” assay that consists of the formation of a complex between the fluorescent peptide P6 and the fully modified anticodon stem and loop of htRNA3^Lys. The concentration of the small molecules was 150 μM i.e. 300 fold of that of P6. […] In the presence of various selected active molecules, inhibition of the complex between P6 and hASL3^Lys was observed (FIGS. 12 A, B and C). The results of these experiments allowed identification and concentration towards a smaller pool of active molecules.
# In order to confirm the activity of the small molecules showing potential anti-HIV inhibition, a second round of testing using their analogs (˜20 analogs were chosen for each selected active small molecule) was initiated using the same cell based assay employed in Level 1 Screen and Level 2 Screen. […] The quality and structure of the small molecule hits and their respective analogs were confirmed by NMR and Liquid Chromatography coupled with Mass Spectrometry (LC-MS).
# Dose response data of the active molecules were generated by running the biochemical and functional assays at varying concentration. The potency properties which is one of the characteristics that defines a hit, is evaluated based on the criteria that potency (IC50)<3 μM in the MBS assay and EC50<10 μM in the HIV cell based assay (See FIG. 19). […]
# [2] = system: HIV strains NLA3, HXB and JR-CSF; assay: HIV strain screening; type: cell-based; details: FIG. 13
# Text: Small molecules were also screened for their effectiveness against various HIV strains. For example, the effects of small molecules of interest on HIV strains NLA3, HXB and JR-CSF were studied. […] FIG. 13. Further, small molecules were screened for their effectiveness against other HIV drugs that have different modes of action. For example, various small molecules of interest in the initial screen were studied for their effectiveness relative to protease inhibitors (Saquinavir by Roche) and reverse-transciptase inhibitors (Nevirapine by Boehringer Ingelheim) against various strains, including tri-therapy resistant HIV strains. FIGS. 13 and 14. In one specific study, the effect of small molecules on cell culture HIV viral propagation was compared to no drug (by reviewing % Relative Luminescence Unit (RLU)). Small molecules were also compared to Saquinavir and Nevirapine in both standard HIV strain and Tri-therapy resistant HIV strains. FIG. 14.
# [3] = target: unmodified ASL3^Lys; assay: Fluorescence quenching binding of P6 / NCp7 to unmodified ASL3^Lys; set-up: species or system human; details: modification-dependency
# Text: (§1) The phage-display selection of peptides was completed (randomized 15 mers, and 16 mers with cysteines at two sites for the possible generation of Zn^+2 ‘knuckles’ structures reminiscent of the HIV protein, NCp7) against the fully modified anticodon stem and loop domain of htRNA3^Lys with 5-methoxycarbonylmethyl-2-thiouridine at position 34, 2-methylthio-N^6-threonylcarbamoyladenosine-37 and pseudouridine-39 (hASL3^Lys-mcm^5s^2U34;ms^2t^6A37;Ψ39) covalently attached to microtiter avidin-plates with biotin. In reiterative and competitive phage-display library selections, the two libraries yielded 20 recurring peptide sequences that had reasonable solubility among 155 sequenced clones (Table 2). The hASL3^Lys binding properties of the peptides were characterized using chemically synthesized peptides with an N-terminal fluorescent reporter. One strongly binding, highly specific peptide (P6) was selected. Its ability to mimic the binding of the natural HIV protein, NCp7, to modified htRNA3^Lys was validated. […] Footprinting of P6 on the modified hASL3^Lys by high resolution mass spectrometry indicated conclusively that the anticodon and 3′-adjacent side of the loop were protected (Graham et al., supra).
# [4] = target: hASL3^Lys-mcm^5s^2U34;ms^2t^6A37;Ψ39; assay: Fluorescence quenching binding of P6 / NCp7 to fully modified hASL3^Lys; set-up: species or system human; details: FIGS. 5 and 6
# Text: as §1
# [5] = system: hASL3^Lys-mcm^5s^2U34;ms^2t^6A37;Ψ39; assay: Mechanism based secondary (MBS) assay: competition with fluorescent peptide P6 for hASL3^Lys; type: binding, human; details: complex formation in the absence of small molecules
# Text: In order to identify a set of small molecule ‘hits’, that inhibit viral recruitment or viral preparation of htRNA3^Lys, the inventors developed a microtiter plate-based fluorescence assay. This mechanism based secondary (MBS) assay uses selected peptides that best mimic HIV proteins in their binding to htRNA3^Lys. The present invention uses the above-mentioned MBS assay to identify small molecule bioactive hits against a host cell RNA interaction with HIV proteins critical to viral replication. These hits can now be optimized into a completely different class of HIV drug, one that is far less likely to elicit drug resistance. The present invention is exploiting affinity selected peptides as tools to investigate and understand RNA chemistry and structure, including naturally occurring modifications, as identity elements for HIV protein recognition of the human tRNA3^Lys.
# MBS assay is based on phage display selected peptides that mimic HIV proteins by binding with high affinity and specificity to only the portion of the htRNA3^Lys of interest, the hASL3^Lys (Graham et al., J. Mol. Biol. 2011, 410(4):698-715; Vendeix et al., J. Mol. Biol. 2012, 416(4):467-85). […] The MBS assay is readily amenable to thermodynamic and structural analyses and nucleotide and peptide amino acid changes for optimization. […]
# [6] = system: hASL3^Lys; assay: Circular dichroism of NCp7 and P6 complexes with hASL3^Lys; set-up: species or system human; details: decrease in CD ellipticity with increasing amounts, FIG. 7
# [7] = Human immunodeficiency virus 1, NL43, read-out: IC 50 (units)
molecule,measurement,setting,value
"c1ccc(Nc2nc(Nc3ccccc3)nc(N3CCNCC3)n2)cc1 [Compound 8391-6, N^2,N^4-diphenyl-6-(piperazin-1-yl)-1,3,5-triazine-2,4-diamine]",IC50,[1]; [7],5.3 µM
"O=[N+]([O-])c1cccc(Nc2nc(O)nc(N3CCCCC3)n2)c1 [Compound 8391-5, 4-(3-nitrophenylamino)-6-(piperidin-1-yl)-1,3,5-triazin-2-ol]",Anti-HIV bioactivity of hits and analogs,[1],showed potential anti-HIV inhibition
"CC(C)c1ccc(OCC(=O)N2C(C)CCCC2C)c(Br)c1 (stereo not shown) [Compound 1668-1, 2-(2-bromo-4-isopropylphenoxy)-1-(2,6-dimethylpiperidin-1-yl)ethanone]",IC50,[1]; [7],34 µM
"Cc1cc(NC(=O)C(=O)NC2CC(C)(C)NC(C)(C)C2)ccc1Br [Compound 1668-18, N^1-(4-bromo-3-methylphenyl)-N^2-(2,2,6,6-tetramethylpiperidin-4-yl)oxalimide]",Inhibiting infection of HIV strains relative to no addition of drug,[2],particularly effective
same,Anti-HIV bioactivity of hits and analogs,[1],some of the most bioactive inhibitors
"CC1(C)CC(NC(=O)COc2ccc3ccccc3c2Br)CC(C)(C)N1 [Compound 1668-17, 2-(1-bromonapthalen-2-yloxy)-N-(2,2,6,6-tetramethylpiperidin-4-yl)acetamide]",Anti-HIV bioactivity of hits and analogs,[1],some of the most bioactive inhibitors
"COc1cc2c(cc1OC)C1=C(C#N)CC/C(=N\C(=O)c3ccc(Cl)cc3)N1CC2 [Compound 18200-4, (E)-4-chloro-N-(1-cyano-9,10-dimethoxy-6,7-dihydro-2H-pyrido[2,1-a]isoquinolin-4(3H)-ylidene)benzamide]",IC50,"[1]; Human immunodeficiency virus 1, NL43, isoquinoline table, assay not given, value lies in the CFAR range of b151, read-out: IC 50",14 µM
"COc1cc2c(cc1OC)C1=C(C#N)CC/C(=N\C(=O)c3ccco3)N1CC2 [Compound 18200-2, (E)-N-(1-cyano-9,10-dimethoxy-6,7-dihydro-2H-pyrido[2,1-a]isoquinolin-4(3H)-ylidene)furan-2-carboxamide]",Anti-HIV bioactivity of hits and analogs,[1],some of the most bioactive inhibitors
"COCCNC(=O)c1ccc2c(=O)n(CCC3=CCCCC3)c(=S)[nH]c2c1 [Compound 6188-1, 3-(2-cyclohexenylethyl)-N-(2-methoxyethyl)-4-oxo-2-thioxo-1,2,3,4-tetrahydroquinazoline-7-carboxamide]",IC50,"[1]; Human immunodeficiency virus 1, NL43, quinazoline table, assay not given, value lies in the CFAR range of b151, read-out: IC50",3.3 µM
"COc1cc2c(cc1OC)C1=C(C#N)CCC(=O)N1CC2 [Compound 18200-3, 9,10-dimethoxy-4-oxo-3,4,6,7-tetrahydro-2H-pyrido[2,1-a]isoquinoline-1-carbonitrile]",Anti-HIV bioactivity of hits and analogs,[1],some of the most bioactive inhibitors
"CC1CCCC(C)N1C(=O)COc1ccc(C(C)(C)C)cc1Br (stereo not shown) [Compound 1668-12, 2-(2-bromo-4-tert-butylphenoxy)-1-(2,6-dimethylpiperidin-1-yl)ethanone]",Anti-HIV bioactivity of hits and analogs,[1],showed potential anti-HIV inhibition
RVTHHAFLGAHRTVG [Compound P6],Kd with unmodified ASL3^Lys,[3],incalculable
same,Kd,[4],0.45 ± 0.05 µM
same,Quenching of the fluorescence of the fluorescein-tagged P6 by hASL3^Lys,[5],~80%
same,Effect on hASL3^Lys structure by circular dichroism,[6],denature the hASL3^Lys structure
"NS(=O)(=O)c1cccc(NC(=O)Nc2ccc(Cl)c(Cl)c2)c1 [Compound 2491, 3-(3-(3,4-dichlorophenyl)ureido)benzenesulfon-amide]",IC50,"[1]; Human immunodeficiency virus 1, NL43, other small molecule table, assay not given, values lie in the CFAR range of b151, read-out: IC 50",75 µM
